The source of these data is paper PMC7468576 (Acta Pharmacologica Sinica, 2019).

Data set [1] addresses recombinant human IDO1 (rhIDO1) (Homo sapiens, UniProt P14902). Kind of data set: Enzymatic assay of IDO1. The class given is biochemical.
In data set [2] the target is rhTDO2 (purified TDO2 enzyme) (Homo sapiens, UniProt P48775). Kind of data set: Enzymatic assay of TDO2. The class given is biochemical.
For data set [3], the target named is human IDO1 in HEK 293 cells (Homo sapiens, UniProt P14902). Kind of data set: Cell-based assay of IDO1 activity. The settings on record: for inhibition of the cellular activity of IDO1: HEK 293 cells overexpressing human IDO1, kynurenine released, Fig. 2c.
Sequence of human IDO1 in HEK 293 cells (P14902 whole entry): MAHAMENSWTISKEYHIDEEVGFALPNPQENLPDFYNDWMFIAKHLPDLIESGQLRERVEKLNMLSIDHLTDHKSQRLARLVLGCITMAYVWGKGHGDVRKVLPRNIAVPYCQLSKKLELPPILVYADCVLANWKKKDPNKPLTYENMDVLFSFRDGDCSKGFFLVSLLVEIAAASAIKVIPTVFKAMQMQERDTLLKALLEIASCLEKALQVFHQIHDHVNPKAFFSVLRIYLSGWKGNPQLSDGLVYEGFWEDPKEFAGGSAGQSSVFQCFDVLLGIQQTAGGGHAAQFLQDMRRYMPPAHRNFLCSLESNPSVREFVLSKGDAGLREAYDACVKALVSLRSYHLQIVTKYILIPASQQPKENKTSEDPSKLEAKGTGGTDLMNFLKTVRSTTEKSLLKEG
Data set [4] addresses human TDO2 in HEK 293 cells (Homo sapiens, UniProt P48775). Briefly: Cell-based assay of TDO2 activity.
The target of data set [5] is T1, IDO1 (Homo sapiens, UniProt P14902). Briefly: biochemical. Particulars: for mode of inhibition: L-tryptophan 7.5 μM to 30 μM, Fig. 4.
T1 sequence (P14902 whole entry): as above
Data set [6] deals with T1, IDO1. Kind of data set: IDO1 absorbance spectra. The settings on record: compound 20 μM, rhIDO1 3 μM; for absorbance of ferric-IDO1 at 404 nm: compared with control; for absorbance of ferrous-IDO1 at 428 nm: sodium dithionite. The class given is binding.
Another data set deals with HEK 293 cells. Kind of data set: Cell viability assay. The data set is classed as cell-based, human. The settings on record: conditions used for the kynurenine assay.

Sequence of recombinant human IDO1 (rhIDO1) (P14902 whole entry): as above

Consider `C[C@H]1COC2=C1C(=O)C(=O)c1c2ccc2c1CCCC2(C)C` [Compound B06F5, cryptotanshinone], for which, in data set [1] (read-out: IDO1 inhibitory activity of tanshinone derivatives), the inhibition at 20 µM was more than 40%.

With `Cc1cccc2c3c(ccc12)C1=C(C(=O)C3=O)[C@@H](C)CO1` [Compound 8, dihydrotanshinone I], the 50% inhibitory concentration (IC50) is 2.8 µM in data set [1], 5.1 µM in data set [2], 25.7 µM in data set [3] and 13.3 µM in data set [4]. In data set [3], the “inhibition of the cellular activity of IDO1” value is given as 83.6%. Moreover, the affinity on IDO1 [5] corresponds to a Ki of 2.8 µM. The mode of inhibition entry on IDO1 [5] is recorded as “uncompetitive inhibition”. The “absorbance of ferric-IDO1 at 404 nm” value at IDO1 [6] is “decreased”. Moreover, the “absorbance of ferrous-IDO1 at 428 nm” value on IDO1 [6] is given as “remained unchanged”. Further, in the data set on HEK 293 cells, the “effect on cell viability (CCK8)” value was “no effect on cell viability”.

Regarding `CC(C)=CC[C@@H](O)C1=CC(=O)c2c(O)ccc(O)c2C1=O` [Compound 7, shikonin], in data set [1], the half-inhibitory concentration (IC50) amounted to 0.98 µM. Moreover, in data set [2], the IC50 turned out to be 5.05 µM. Also, in data set [3], the IC50 was determined as 2.2 µM and the “inhibition of the cellular activity of IDO1” value is on record as 101.8%. Also, half-maximal inhibition in data set [4] (IC50) required 1.4 µM. On IDO1 [5], the affinity, expressed as Ki, was 1.4 µM and the mode of inhibition result is “uncompetitive inhibition”. At IDO1 [6], the “absorbance of ferric-IDO1 at 404 nm” value is recorded as “decreased” and the “absorbance of ferrous-IDO1 at 428 nm” value was “remained unchanged”. In addition, the “effect on cell viability (CCK8)” value in the data set with HEK 293 cells was “slightly reduced cell viability”.

Usually IC50 stands for the concentration at which inhibition is half-maximal. The Ki is the dissociation constant of the complex between target and ligand, obtained from inhibition or displacement. Low values mean higher affinity, high ones lower affinity.
